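Compound exposure: 48 hours, 5 concentrations, 96-well plates. Here, GI50 denotes the concentration required for 50% inhibition of growth. At the TGI there is no net growth.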
Assays:
Experiment in all cases: inhibition of tumour cell growth, NCI panel, 48 h
[1] = system: UACC-257 melanoma
[2] = system: NCI-H460 lung
[3] = system: UACC-62 melanoma
[4] = system: CCRF-CEM leukemia
[5] = system: HS 578T breast
[6] = system: MALME-3M melanoma
[7] = system: SK-MEL-2 melanoma
[8] = system: 786-0 renal
[9] = system: SF-268 CNS
[10] = system: CAKI-1 renal
[11] = system: NCI-H23 lung
[12] = system: SK-MEL-5 melanoma
[13] = system: UO-31 renal
[14] = system: M14 melanoma
[15] = system: DU-145 prostate
[16] = system: RPMI-8226 leukemia
[17] = system: A549 NSCLC
[18] = system: MDA-MB-435
[19] = system: SW-620 colon
[20] = system: SK-MEL-28 melanoma
[21] = system: SNB-19 CNS
[22] = system: SK-OV-3 ovarian
[23] = system: K-562 leukemia
[24] = system: HL-60(TB) leukemia
[25] = system: BT-549 breast
[26] = system: SN12C renal
[27] = system: SF-295 CNS
[28] = system: NCI/ADR-RES ovarian
[29] = system: LOX IMVI melanoma
[30] = system: COLO 205 colon
[31] = system: HCC-2998 colon
[32] = system: HCT-116 colon
[33] = system: T-47D breast
[34] = system: HT29 colon
[35] = system: MOLT-4 leukemia
[36] = system: SF-539 CNS
[37] = system: PC-3 prostate
[38] = system: NCI-H522 lung
[39] = system: SR leukemia
[40] = system: RXF 393 renal
[41] = system: A498 renal
[42] = system: NCI-H226 lung
[43] = system: OVCAR-8 ovarian
[44] = system: MCF7 breast
[45] = system: MDA-MB-231 breast
[46] = system: OVCAR-5 ovarian
[47] = system: SNB-75 CNS
[48] = system: OVCAR-3 ovarian
[49] = system: ACHN renal
[50] = system: HCT-15 colon
[51] = system: HOP-62 NSCLC
[52] = system: KM12 colon
[53] = system: IGROV1 ovarian
[54] = system: OVCAR-4 ovarian
[55] = system: TK-10 renal
[56] = system: EKVX NSCLC
[57] = system: HOP-92 NSCLC
[58] = system: U251 CNS

Structure (SMILES): COc1cc2c(Oc3ccc4[nH]c(C)cc4c3F)ncnc2cc1OCCCN1CCCC1
- GI50 [1]: 1.75 µM
- TGI [1]: 3.53 µM
- GI50 [2]: 3.29 µM
- TGI [2]: 11.6 µM
- GI50 [3]: 2.77 µM
- TGI [3]: 6.73 µM
- GI50 [4]: 3.74 µM
- TGI [4]: 16.8 µM
- GI50 [5]: 1.32 µM
- TGI [5]: 6.89 µM
- GI50 [6]: 2.48 µM
- TGI [6]: 7.02 µM
- GI50 [7]: 3.84 µM
- TGI [7]: 10.3 µM
- GI50 [8]: 3.57 µM
- TGI [8]: 13.3 µM
- GI50 [9]: 4.06 µM
- TGI [9]: 16.6 µM
- GI50 [10]: 2.79 µM
- TGI [10]: 13.9 µM
- GI50 [11]: 5.17 µM
- TGI [11]: 22.7 µM
- GI50 [12]: 1.62 µM
- TGI [12]: 3.17 µM
- GI50 [13]: 0.544 µM
- TGI [13]: 5.64 µM
- GI50 [14]: 1.88 µM
- TGI [14]: 3.78 µM
- GI50 [15]: 4.66 µM
- TGI [15]: 16 µM
- GI50 [16]: 3.63 µM
- TGI [16]: 10.7 µM
- GI50 [17]: 3.07 µM
- TGI [17]: 13 µM
- GI50 [18]: 2.75 µM
- TGI [18]: 8.98 µM
- GI50 [19]: 3.77 µM
- TGI [19]: 14.7 µM
- GI50 [20]: 2.57 µM
- TGI [20]: 6.68 µM
- GI50 [21]: 6.47 µM
- TGI [21]: 22.2 µM
- GI50 [22]: 5.53 µM
- TGI [22]: 19 µM
- GI50 [23]: 2.15 µM
- TGI [23]: 7.44 µM
- GI50 [24]: 2.04 µM
- TGI [24]: 4.37 µM
- GI50 [25]: 2.98 µM
- TGI [25]: 10.8 µM
- GI50 [26]: 3.84 µM
- TGI [26]: 19.9 µM
- GI50 [27]: 2.81 µM
- TGI [27]: 13.2 µM
- GI50 [28]: 9.69 µM
- TGI [28]: 24.7 µM
- GI50 [29]: 1.62 µM
- TGI [29]: 4.31 µM
- GI50 [30]: 1.83 µM
- TGI [30]: 3.58 µM
- GI50 [31]: 3.77 µM
- TGI [31]: 11.8 µM
- GI50 [32]: 3.96 µM
- TGI [32]: 14.7 µM
- GI50 [33]: 1.8 µM
- TGI [33]: 4.72 µM
- GI50 [34]: 1.7 µM
- TGI [34]: 4.09 µM
- GI50 [35]: 2.55 µM
- TGI [35]: 13.8 µM
- GI50 [36]: 0.46 µM
- TGI [36]: 2.47 µM
- GI50 [37]: 4.63 µM
- TGI [37]: 17.5 µM
- GI50 [38]: 2.33 µM
- TGI [38]: 5.99 µM
- GI50 [39]: 3.06 µM
- TGI [39]: 15 µM
- GI50 [40]: 1.07 µM
- TGI [40]: 3.31 µM
- GI50 [41]: 0.129 µM
- TGI [41]: 0.72 µM
- GI50 [42]: 0.675 µM
- TGI [42]: 9.15 µM
- GI50 [43]: 3.88 µM
- TGI [43]: 15.6 µM
- GI50 [44]: 3.79 µM
- TGI [44]: 18.5 µM
- GI50 [45]: 2.54 µM
- TGI [45]: 7.58 µM
- GI50 [46]: 4.72 µM
- TGI [46]: 19.5 µM
- GI50 [47]: 0.959 µM
- TGI [47]: 5.09 µM
- GI50 [48]: 2.25 µM
- TGI [48]: 7.56 µM
- GI50 [49]: 1.96 µM
- TGI [49]: 14.9 µM
- GI50 [50]: 3.16 µM
- TGI [50]: 15.2 µM
- GI50 [51]: 2.03 µM
- TGI [51]: 10.5 µM
- GI50 [52]: 4.33 µM
- TGI [52]: 15.3 µM
- GI50 [53]: 1.45 µM
- TGI [53]: 14.2 µM
- GI50 [54]: 1.38 µM
- TGI [54]: 8.99 µM
- GI50 [55]: 1.57 µM
- TGI [55]: 6.98 µM
- GI50 [56]: 6.07 µM
- TGI [56]: 22.1 µM
- GI50 [57]: 0.761 µM
- TGI [57]: 5.2 µM
- GI50 [58]: 1.43 µM
- TGI [58]: 6.99 µM

Structure (SMILES): C=C(C)[C@@H]1/C=C(/C(C)C)CC[C@@]2(C)OC2CC[C@H](C)CC1=O (stereo partly specified)
- GI50 [1]: 47.6 µM
- TGI [1]: > 100 µM
- GI50 [2]: 18.7 µM
- TGI [2]: 37.7 µM
- GI50 [3]: > 100 µM
- TGI [3]: > 100 µM
- GI50 [4]: 20.3 µM
- TGI [4]: 52.3 µM
- GI50 [5]: 46 µM
- TGI [5]: > 100 µM
- GI50 [6]: 35.3 µM
- TGI [6]: > 100 µM
- GI50 [7]: 52.1 µM
- TGI [7]: > 100 µM
- GI50 [8]: > 42.8 µM
- TGI [8]: > 59.6 µM
- GI50 [9]: 37.7 µM
- TGI [9]: > 100 µM
- GI50 [10]: 24.1 µM
- TGI [10]: 53.8 µM
- GI50 [11]: 21.2 µM
- TGI [11]: 43.9 µM
- GI50 [12]: 19.4 µM
- TGI [12]: 37.9 µM
- GI50 [13]: 23.2 µM
- TGI [13]: > 55.7 µM
- GI50 [14]: 30.8 µM
- TGI [14]: > 62.8 µM
- GI50 [15]: 19.4 µM
- TGI [15]: 36 µM
- GI50 [16]: 20.1 µM
- TGI [16]: 54.1 µM
- GI50 [17]: 28.8 µM
- TGI [17]: > 100 µM
- GI50 [18]: 26.6 µM
- TGI [18]: 71.6 µM
- GI50 [19]: 25.4 µM
- TGI [19]: 65.7 µM
- GI50 [20]: 59.3 µM
- TGI [20]: > 100 µM
- GI50 [21]: 60 µM
- TGI [21]: > 100 µM
- GI50 [22]: > 100 µM
- TGI [22]: > 100 µM
- GI50 [23]: 19.7 µM
- TGI [23]: 58.6 µM
- GI50 [24]: 25 µM
- TGI [24]: 76.2 µM
- GI50 [25]: 38.8 µM
- TGI [25]: > 100 µM
- GI50 [26]: 21 µM
- TGI [26]: 46 µM
- GI50 [27]: 27.4 µM
- TGI [27]: > 71.6 µM
- GI50 [28]: 25.4 µM
- TGI [28]: 59.8 µM
- GI50 [29]: 22.4 µM
- TGI [29]: > 57.7 µM
- GI50 [30]: 24.9 µM
- TGI [30]: > 61 µM
- GI50 [31]: > 44.4 µM
- TGI [31]: > 65.9 µM
- GI50 [32]: 17.3 µM
- TGI [32]: 31.7 µM
- GI50 [33]: 27.4 µM
- TGI [33]: > 80.3 µM
- GI50 [34]: 31.6 µM
- TGI [34]: 98.8 µM
- GI50 [35]: 16.3 µM
- TGI [35]: 40.9 µM
- GI50 [36]: 21.9 µM
- TGI [36]: 42.7 µM
- GI50 [37]: 22.2 µM
- TGI [37]: 54.3 µM
- GI50 [38]: 31.2 µM
- TGI [38]: > 93.5 µM
- GI50 [39]: 2.18 µM
- GI50 [40]: 3.37 µM
- TGI [40]: > 49.1 µM
- GI50 [41]: 31.6 µM
- TGI [41]: > 93.2 µM
- GI50 [42]: > 38.8 µM
- TGI [42]: > 66.9 µM
- GI50 [43]: 33.9 µM
- TGI [43]: > 70.5 µM
- GI50 [44]: 27.7 µM
- TGI [44]: > 63.8 µM
- GI50 [45]: 19.3 µM
- TGI [45]: 49.5 µM
- GI50 [46]: > 43.5 µM
- TGI [46]: > 63.5 µM
- GI50 [47]: > 100 µM
- TGI [47]: > 100 µM
- GI50 [48]: 24.8 µM
- TGI [48]: 66.1 µM
- GI50 [49]: 27.5 µM
- TGI [49]: > 55 µM
- GI50 [50]: 38.6 µM
- TGI [50]: > 68.6 µM
- GI50 [51]: 30.3 µM
- TGI [51]: > 57.9 µM
- GI50 [52]: 18.6 µM
- TGI [52]: 39.7 µM
- GI50 [53]: 24.7 µM
- TGI [53]: > 63.3 µM
- GI50 [54]: 73.8 µM
- TGI [54]: > 100 µM
- GI50 [55]: 27.6 µM
- TGI [55]: > 79.4 µM
- GI50 [56]: 52.1 µM
- TGI [56]: > 100 µM
- GI50 [57]: 26.3 µM
- TGI [57]: > 76.7 µM
- GI50 [58]: 27.6 µM
- TGI [58]: > 62.2 µM

From PubChem BioAssay (NCI)
